Paper PMC10867124, “Plant root associated chitinases: structures and functions” (Frontiers in Plant Science, 2024)

How the values were obtained:
ZmChi19A = molecular target: T1, ZmChi19A (Zea mays, UniProt B6TR38, E147A/E169A); test: 4-MU release fluorescence, relative activity; assay type: biochemical; settings: SUMO fusion; catalytic residues mutated
T1 construct: cDNA from maize root; signal peptide removed; N-terminal 10xHis-SUMO tag kept, TEV site; CBD, catalytic domain and flexible C-terminal domain; pET28b, E. coli; FPLC-purified
T1 sequence (B6TR38 26-334 E147A/E169A limits assumed): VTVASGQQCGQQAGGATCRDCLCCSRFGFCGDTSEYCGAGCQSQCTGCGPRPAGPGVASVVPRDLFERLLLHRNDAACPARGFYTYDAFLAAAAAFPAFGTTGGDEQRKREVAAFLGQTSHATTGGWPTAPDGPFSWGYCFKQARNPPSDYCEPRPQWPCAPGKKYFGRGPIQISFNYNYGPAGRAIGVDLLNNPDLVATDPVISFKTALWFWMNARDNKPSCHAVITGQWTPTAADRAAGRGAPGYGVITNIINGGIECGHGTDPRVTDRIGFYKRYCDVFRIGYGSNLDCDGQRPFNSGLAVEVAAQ

[1] = substrate: CC(=O)N[C@H]1[C@H](Oc2ccc3c(C)cc(=O)oc3c2)O[C@H](CO)[C@@H](O[C@@H]2O[C@H](CO)[C@@H](O[C@@H]3O[C@H](CO)[C@@H](O)[C@H](O)[C@H]3NC(C)=O)[C@H](O)[C@H]2NC(C)=O)[C@@H]1O; test: 4-MU release fluorescence, Langmuir fit; assay type: biochemical, Chitinophaga oryzae; settings: 50 °C, pH 8

CC(=O)N[C@H]1[C@H](Oc2ccc3c(C)cc(=O)oc3c2)O[C@H](CO)[C@@H](O[C@@H]2O[C@H](CO)[C@@H](O[C@@H]3O[C@H](CO)[C@@H](O)[C@H](O)[C@H]3NC(C)=O)[C@H](O)[C@H]2NC(C)=O)[C@@H]1O [4-MU-GlcNAc3]
4-MU release fluorescence, relative activity (ZmChi19A): ZmChi19A(E147A,E169A) showed almost complete loss of activity

B1: CspCh18A (Chitinophaga oryzae) (protein)
chain: CKKDEARPDNPQTKSEPRVETVTKAGGKSVCYVEVNSNSLLNTGKYTLTTGGQQLFDIAIIFAANINYNTTTGKAVLYNNPNVTNVLVNKNTQIVPLQNKGMKVLLSILGNHQGAGFCNFTSRAAAKAFAQQLADTANYYGLDGIDFDDEYADYGNNGLPQPNDSSFVMLLDELRKLMPTKIISFYYYGPAASRLSWGGKKAGDFINYSWNAMYGTYSVPNVAGLTKANLGPAAVDIQATSQSTANWLATQTKNNGYGIYLWYNLTSTDKHVYFSGVSNILYGSSVTYTP
notes: signal peptide removed; TEV site, His tag; pET28a, E. coli; TIM-barrel catalytic domain, no CBD; FPLC-purified
Km [1]: 37 µM
